Data taken from PubChem BioAssay AID1963970 (Molecular Pharmacology Branch, DTP, NCI, 2024).
Each block holds one molecule with its values, some of them ahead of it.

Tested on: 931267-113-T-J1-PDC multicell spheroid viability
Test: Anticancer human tumor 931267-113-T-J1-PDC patient-derived colon adenocarcinoma cell line growth inhibition [PI3K]
Details: for IC50: curve of first compound; for viability, T/C: stronger effect = lower value
Outline: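 Agents were dosed from a top concentration near clinical Cmax (otherwise 10 microM) in half-log decrements, alone or combined with PI3K inhibitors. The spheroids contain tumor cells plus endothelial (HUVEC) and MSC stroma; viability is measured.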

[1] = second compound 0.0316 µM, first compound 0.0316 µM
[2] = second compound 0.0316 µM, first compound 0.1 µM
[3] = second compound 0.0316 µM, first compound 0.316 µM
[4] = second compound 0.0316 µM, first compound 1 µM
[5] = second compound 0.0316 µM, first compound 3.16 µM
[6] = second compound 0.0316 µM, first compound 10 µM
[7] = second compound 0.1 µM, first compound 0.0316 µM
[8] = second compound 0.1 µM, first compound 0.1 µM
[9] = second compound 0.1 µM, first compound 0.316 µM
[10] = second compound 0.1 µM, first compound 1 µM
[11] = second compound 0.1 µM, first compound 3.16 µM
[12] = second compound 0.1 µM, first compound 10 µM
[13] = second compound 0.316 µM, first compound 0.0316 µM
[14] = second compound 0.316 µM, first compound 0.1 µM
[15] = second compound 0.316 µM, first compound 0.316 µM
[16] = second compound 0.316 µM, first compound 1 µM
[17] = second compound 0.316 µM, first compound 3.16 µM
[18] = second compound 0.316 µM, first compound 10 µM
[19] = second compound 1 µM, first compound 0.0316 µM
[20] = second compound 1 µM, first compound 0.1 µM
[21] = second compound 1 µM, first compound 0.316 µM
[22] = second compound 1 µM, first compound 1 µM
[23] = second compound 1 µM, first compound 3.16 µM
[24] = second compound 1 µM, first compound 10 µM
[25] = second compound 3.16 µM, first compound 0.0316 µM
[26] = second compound 3.16 µM, first compound 0.1 µM
[27] = second compound 3.16 µM, first compound 0.316 µM
[28] = second compound 3.16 µM, first compound 1 µM
[29] = second compound 3.16 µM, first compound 3.16 µM
[30] = second compound 3.16 µM, first compound 10 µM
[31] = second compound 10 µM, first compound 0.0316 µM
[32] = second compound 10 µM, first compound 0.1 µM
[33] = second compound 10 µM, first compound 0.316 µM
[34] = second compound 10 µM, first compound 1 µM
[35] = second compound 10 µM, first compound 3.16 µM
[36] = second compound 10 µM, first compound 10 µM
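Further: viability read 7 days after compound addition.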

SMILES: C#Cc1c(F)ccc2cc(O)cc(-c3ncc4c(N5CC6CCC(C5)N6)nc(OCC56CCCN5CC(F)C6)nc4c3F)c12 (stereo not given) + Cc1nc(NC(=O)N2CCCC2C(N)=O)sc1-c1ccnc(C(C)(C)C(F)(F)F)c1
IC50 (second compound 0.0316 µM): 0.403 µM
IC50 (second compound 0.1 µM): 0.467 µM
IC50 (second compound 0.316 µM): 0.183 µM
IC50 (second compound 1 µM): 0.127 µM
IC50 (second compound 3.16 µM): 0.104 µM
IC50 (second compound 10 µM): < 0.0316 µM
viability, T/C [1]: 80.2%
viability, T/C [2]: 71.2%
viability, T/C [3]: 50.4%
viability, T/C [4]: 40%
viability, T/C [5]: 29.8%
viability, T/C [6]: 23.8%
viability, T/C [7]: 84.3%
viability, T/C [8]: 71.8%
viability, T/C [9]: 54.1%
viability, T/C [10]: 41.4%
viability, T/C [11]: 25.6%
viability, T/C [12]: 19.4%
viability, T/C [13]: 72.6%
viability, T/C [14]: 59.2%
viability, T/C [15]: 41.4%
viability, T/C [16]: 30.9%
viability, T/C [17]: 26.3%
viability, T/C [18]: 15.3%
viability, T/C [19]: 67.3%
viability, T/C [20]: 54.3%
viability, T/C [21]: 37.2%
viability, T/C [22]: 28.3%
viability, T/C [23]: 21%
viability, T/C [24]: 13.7%
viability, T/C [25]: 67%
viability, T/C [26]: 51.9%
viability, T/C [27]: 29.4%
viability, T/C [28]: 21.2%
viability, T/C [29]: 15.8%
viability, T/C [30]: 11.5%
viability, T/C [31]: 49.1%
viability, T/C [32]: 38.7%
viability, T/C [33]: 25.2%
viability, T/C [34]: 18.8%
viability, T/C [35]: 16.9%
viability, T/C [36]: 9.04%

SMILES: C=CC(=O)N1CCN(c2nc(=O)n(-c3c(C)ccnc3C(C)C)c3nc(-c4c(O)cccc4F)c(F)cc23)C(C)C1 (stereo not given) + Cc1nc(NC(=O)N2CCCC2C(N)=O)sc1-c1ccnc(C(C)(C)C(F)(F)F)c1
IC50 (second compound 0.0316 µM): > 10 µM
IC50 (second compound 0.1 µM): > 10 µM
IC50 (second compound 0.316 µM): > 10 µM
IC50 (second compound 1 µM): > 10 µM
IC50 (second compound 3.16 µM): > 10 µM
IC50 (second compound 10 µM): > 10 µM
viability, T/C [1]: 86.3%
viability, T/C [2]: 91.1%
viability, T/C [3]: 99.2%
viability, T/C [4]: 104%
viability, T/C [5]: 108%
viability, T/C [6]: 85.5%
viability, T/C [7]: 99.6%
viability, T/C [8]: 78.7%
viability, T/C [9]: 85.7%
viability, T/C [10]: 100%
viability, T/C [11]: 105%
viability, T/C [12]: 82.7%
viability, T/C [13]: 80.6%
viability, T/C [14]: 87.2%
viability, T/C [15]: 94.1%
viability, T/C [16]: 91.8%
viability, T/C [17]: 84.7%
viability, T/C [18]: 76.9%
viability, T/C [19]: 83.5%
viability, T/C [20]: 76.6%
viability, T/C [21]: 73.9%
viability, T/C [22]: 83.7%
viability, T/C [23]: 94.7%
viability, T/C [24]: 65.6%
viability, T/C [25]: 66.3%
viability, T/C [26]: 71.3%
viability, T/C [27]: 71.1%
viability, T/C [28]: 72.7%
viability, T/C [29]: 71.2%
viability, T/C [30]: 59%
viability, T/C [31]: 54.6%
viability, T/C [32]: 55.2%
viability, T/C [33]: 59.2%
viability, T/C [34]: 62.6%
viability, T/C [35]: 62.4%
viability, T/C [36]: 49%

SMILES: CC1(C)CCC(Nc2ncc(C(F)(F)F)c(-c3c[nH]c4c(P(C)(C)=O)c(C#N)ccc34)n2)CN1 (stereo not given) + Cc1nc(NC(=O)N2CCCC2C(N)=O)sc1-c1ccnc(C(C)(C)C(F)(F)F)c1
IC50 (second compound 0.0316 µM): > 10 µM
IC50 (second compound 0.1 µM): > 10 µM
IC50 (second compound 0.316 µM): > 10 µM
IC50 (second compound 1 µM): > 10 µM
IC50 (second compound 3.16 µM): 9.36 µM
IC50 (second compound 10 µM): 3.31 µM
viability, T/C [1]: 101%
viability, T/C [2]: 93.7%
viability, T/C [3]: 83.2%
viability, T/C [4]: 74.1%
viability, T/C [5]: 70.9%
viability, T/C [6]: 58.2%
viability, T/C [7]: 94.5%
viability, T/C [8]: 70.2%
viability, T/C [9]: 70.7%
viability, T/C [10]: 70.5%
viability, T/C [11]: 77.9%
viability, T/C [12]: 58%
viability, T/C [13]: 79.6%
viability, T/C [14]: 79%
viability, T/C [15]: 80.4%
viability, T/C [16]: 67.6%
viability, T/C [17]: 74.5%
viability, T/C [18]: 54.6%
viability, T/C [19]: 82%
viability, T/C [20]: 77.6%
viability, T/C [21]: 70.7%
viability, T/C [22]: 69.6%
viability, T/C [23]: 62.3%
viability, T/C [24]: 52.2%
viability, T/C [25]: 75%
viability, T/C [26]: 65.5%
viability, T/C [27]: 60.6%
viability, T/C [28]: 63.2%
viability, T/C [29]: 61.5%
viability, T/C [30]: 46%
viability, T/C [31]: 54%
viability, T/C [32]: 50.6%
viability, T/C [33]: 49.8%
viability, T/C [34]: 47%
viability, T/C [35]: 52.7%
viability, T/C [36]: 30.4%

Continued by falling IC50 (second compound 0.0316 µM), values first:

IC50 (second compound 0.0316 µM): 6.31 µM
IC50 (second compound 0.1 µM): 5.39 µM
IC50 (second compound 0.316 µM): 5.52 µM
IC50 (second compound 1 µM): 4.31 µM
IC50 (second compound 3.16 µM): 4.15 µM
IC50 (second compound 10 µM): 2.63 µM
SMILES: Cn1ncc(Cl)c1-c1cc(C(=O)NC(CN)Cc2cccc(F)c2)sc1Cl (stereo not given) + Cc1nc(NC(=O)N2CCCC2C(N)=O)sc1-c1ccnc(C(C)(C)C(F)(F)F)c1
viability, T/C [1]: 97.3%
viability, T/C [2]: 89%
viability, T/C [3]: 88.7%
viability, T/C [4]: 73.6%
viability, T/C [5]: 79.7%
viability, T/C [6]: 33.6%
viability, T/C [7]: 101%
viability, T/C [8]: 86%
viability, T/C [9]: 91.4%
viability, T/C [10]: 85%
viability, T/C [11]: 68.3%
viability, T/C [12]: 29.4%
viability, T/C [13]: 89.3%
viability, T/C [14]: 94%
viability, T/C [15]: 83.2%
viability, T/C [16]: 85.9%
viability, T/C [17]: 68.2%
viability, T/C [18]: 30.2%
viability, T/C [19]: 84.3%
viability, T/C [20]: 84.7%
viability, T/C [21]: 77%
viability, T/C [22]: 68.7%
viability, T/C [23]: 59.9%
viability, T/C [24]: 30.1%
viability, T/C [25]: 73.6%
viability, T/C [26]: 61.7%
viability, T/C [27]: 66.9%
viability, T/C [28]: 63.8%
viability, T/C [29]: 58.8%
viability, T/C [30]: 23.5%
viability, T/C [31]: 69.9%
viability, T/C [32]: 61.6%
viability, T/C [33]: 58.7%
viability, T/C [34]: 60.5%
viability, T/C [35]: 48.9%
viability, T/C [36]: 21.9%

IC50 (second compound 0.0316 µM): 4.76 µM
IC50 (second compound 0.1 µM): 3.57 µM
IC50 (second compound 0.316 µM): 2.38 µM
IC50 (second compound 1 µM): 1.47 µM
IC50 (second compound 3.16 µM): 0.65 µM
IC50 (second compound 10 µM): 0.143 µM
SMILES: Cn1nccc1Nc1nccc(-c2ccn(C(CO)c3ccc(Cl)c(F)c3)c(=O)c2)n1 (stereo not given) + Cc1nc(NC(=O)N2CCCC2C(N)=O)sc1-c1ccnc(C(C)(C)C(F)(F)F)c1
viability, T/C [1]: 94.7%
viability, T/C [2]: 90.4%
viability, T/C [3]: 92.4%
viability, T/C [4]: 77.2%
viability, T/C [5]: 57.5%
viability, T/C [6]: 37.3%
viability, T/C [7]: 102%
viability, T/C [8]: 88.4%
viability, T/C [9]: 82.8%
viability, T/C [10]: 68.9%
viability, T/C [11]: 52.9%
viability, T/C [12]: 31.7%
viability, T/C [13]: 90.3%
viability, T/C [14]: 92.2%
viability, T/C [15]: 77.9%
viability, T/C [16]: 68%
viability, T/C [17]: 43.9%
viability, T/C [18]: 27.5%
viability, T/C [19]: 86.4%
viability, T/C [20]: 78.5%
viability, T/C [21]: 71.4%
viability, T/C [22]: 54%
viability, T/C [23]: 39.5%
viability, T/C [24]: 19.1%
viability, T/C [25]: 74.9%
viability, T/C [26]: 65.2%
viability, T/C [27]: 58.1%
viability, T/C [28]: 43.6%
viability, T/C [29]: 36.3%
viability, T/C [30]: 15.2%
viability, T/C [31]: 57%
viability, T/C [32]: 50.7%
viability, T/C [33]: 45.2%
viability, T/C [34]: 39.4%
viability, T/C [35]: 26.4%
viability, T/C [36]: 14.3%
